Experimental findings from patent publication US6689883B1, “Substituted pyridines and pyridazines with angiogenesis inhibiting activity” (Bayer Pharmaceuticals Corporation, priority 1999, dated 2004) are described below.

In data set [1] the target is T1, full length KDR receptor in NIH3T3 cells (Homo sapiens, UniProt P35968).
T1 construct: NIH3T3 cells expressing the full length KDR receptor were grown in DMEM; expressed in transfected cells; host or cells: NIH3T3 cells (G418 selection)
Kind of data set: Cell Mechanistic Assay-Inhibition of 3T3 KDR Phosphorylation. As to conditions: NIH3T3 cells expressing KDR, VEGF 30 ng/ml stimulation. It is filed as cell-based. As for the experimental part: NIH3T3 cells expressing the full length KDR receptor were grown in DMEM (Life Technologies, Inc., Grand Island, N.Y.) supplemented with 10% newborn calf serum, low glucose, 25 mM/L sodium pyruvate, pyridoxine hydrochloride and 0.2 mg/ml of G418 (Life Technologies Inc., Grand Island, N.Y.). The cells were maintained in collagen I-coated T75 flasks (Becton Dickinson Labware, Bedford, Mass.) in a humidified 5% CO2 atmosphere at 37° C.
Fifteen thousand cells were plated into each well of a collagen I-coated 96-well plate in the DMEM growth medium. Six hours later, the cells were washed and the medium was replaced with DMEM without serum. After overnight culture to quiesce the cells, the medium was replaced by Dulbecco's phosphate-buffered saline (Life Technologies Inc., Grand Island, N.Y.) with 0.1% bovine albumin (Sigma Chemical Co., St Louis, Mo.). After adding various concentrations (0-300 nM) of test compounds to the cells in 1% final concentration of DMSO, the cells were incubated at room temperature for 30 minutes. The cells were then treated with VEGF (30 ng/ml) for 10 minutes at room temperature. Following VEGF stimulation, the buffer was removed and the cells were lysed by addition of 150 μl of extraction buffer (50 mM Tris, pH 7.8, supplemented with 10% glycerol, 50 mM BGP, 2 mM EDTA, 10 mM NaF, 0.5 mM NaVO4, and 0.3% TX-100) at 4° C. for 30 minutes.
To assess receptor phosphorylation, 100 microliters of each cell lysate was added to the wells of an ELISA plate precoated with 300 ng of antibody C20 (Santa Cruz Biotechnology, Inc., Santa Cruz, Calif.). Following a 60-minute incubation, the plate was washed and bound KDR was probed for phosphotyrosine using an anti-phosphotyrosine mAb clone 4G10 (Upstate Biotechnology, Lake Placid, N.Y.). The plate was washed and wells were incubated with anti-mouse IgG/HRP conjugate (Amersham International plc, Buckinghamshire, England) for 60 minutes. Wells were washed and phosphotyrosine was quantitated by addition of 100 μl per well of 3,3′,5,5′tetramethylbenzidine (Kirkegaard and Perry, TMB Microwell 1 Component peroxidase substrate) solution. Color development was arrested by the addition of 100 μl 1% HCl based stop solution (Kirkegaard and Perry, TMB 1 Component Stop Solution).
Optical densities (OD) were determined spectrophotometrically at 450 nm in a 96-well plate reader (SpectraMax 250, Molecular Devices). Background (no VEGF added) OD values were subtracted from all ODs and percent inhibition was calculated according to the equation: [formula]
IC50s were determined on some of the exemplary materials with a least squares analysis program using compound concentration versus percent inhibition. Compounds that have IC50≦20 nM in this assay include those of Examples 2, 6, 10, 11, 14, 23, 96, 101, 102, 103, 104, 105. Compounds that have IC50 values between 20 nM and 50 nM include those of examples 1, 4, 8, 9, 12, 13, 17, 24, 93, 98. Compounds that have IC50 values between 50 nM and 400 nM include those of examples 97, 99, and 100.

Data set [2] concerns the target T2, cytosolic kinase domain of KDR kinase (Homo sapiens, UniProt P35968).
T2 construct: The cytosolic kinase domain of KDR kinase was expressed as a 6His fusion protein in Sf9 insect cells; 6His; made in house; host or cells: Sf9 insect cells
Kind of data set: KDR Assay (ELISA, poly(Glu4;Tyr1) phosphorylation). It is filed as biochemical. Particulars: 3.3 μM ATP, 60 minutes at room temperature. As for the experimental part:
The cytosolic kinase domain of KDR kinase was expressed as a 6His fusion protein in Sf9 insect cells. The KDR kinase domain fusion protein was purified over a Ni++ chelating column. Ninety-six well ELISA plates were coated with 5 μg poly(Glu4;Tyr1) (Sigma Chemical Co., St Louis, Mo.) in 100 μl HEPES buffer (20 mM HEPES, pH 7.5, 150 mM NaCl, 0.02% Thimerosal) at 4° overnight. Before use, the plate was washed with HEPES, NaCl buffer and the plates were blocked with 1% BSA, 0.1% Tween 20 in HEPES, NaCl buffer.
Test compounds were serially diluted in 100% DMSO from 4 mM to 0.12 μM in half-log dilutions. These dilutions were further diluted twenty fold in H2O to obtain compound solutions in 5% DMSO. Following loading of the assay plate with 85 μl of assay buffer (20 mM HEPES, pH 7.5, 100 mM KCl, 10 mM MgCl2, 3 mM MnCl2, 0.05% glycerol, 0.005% Triton X-100, 1 mM-mercaptoethanol, with or without 3.3 μM ATP), 5 μl of the diluted compounds were added to a final assay volume of 100 μl. Final concentrations were between 10 μM, and 0.3 nM in 0.25% DMSO. The assay was initiated by the addition of 10 μl (30 ng) of KDR kinase domain.
The assay was incubated with test compound or vehicle alone with gentle agitation at room temperature for 60 minutes. The wells were washed and phosphotyrosines (PY) were probed with an anti-phosphotyrosine (PY), mAb clone 4G10 (Upstate Biotechnology, Lake Placid, N.Y.). PY/anti-PY complexes were detected with an anti-mouse IgG/HRP conjugate (Amersham International plc, Buckinghamshire, England). Phosphotyrosine was quantitated by incubating with 100 μl 3,3′,5,5′tetramethylbenzidine solution (Kirkegaard and Perry, TMB Microwell 1 Component peroxidase substrate). Color development was arrested by the addition of 100 μl 1% HCl-based stop solution (Kirkegaard and Perry, TMB 1 Component Stop Solution).
Optical densities were determined spectrophotometrically at 450 nm in a 96-well plate reader, SpectraMax 250 (Molecular Devices). Background (no ATP in assay) OD values were subtracted from all ODs and the percent inhibition was calculated according to the equation: [formula]
On the technique in general: An ELISA detects its analyte on a solid surface through an enzyme-linked reagent.

T1 sequence (P35968 20-1356): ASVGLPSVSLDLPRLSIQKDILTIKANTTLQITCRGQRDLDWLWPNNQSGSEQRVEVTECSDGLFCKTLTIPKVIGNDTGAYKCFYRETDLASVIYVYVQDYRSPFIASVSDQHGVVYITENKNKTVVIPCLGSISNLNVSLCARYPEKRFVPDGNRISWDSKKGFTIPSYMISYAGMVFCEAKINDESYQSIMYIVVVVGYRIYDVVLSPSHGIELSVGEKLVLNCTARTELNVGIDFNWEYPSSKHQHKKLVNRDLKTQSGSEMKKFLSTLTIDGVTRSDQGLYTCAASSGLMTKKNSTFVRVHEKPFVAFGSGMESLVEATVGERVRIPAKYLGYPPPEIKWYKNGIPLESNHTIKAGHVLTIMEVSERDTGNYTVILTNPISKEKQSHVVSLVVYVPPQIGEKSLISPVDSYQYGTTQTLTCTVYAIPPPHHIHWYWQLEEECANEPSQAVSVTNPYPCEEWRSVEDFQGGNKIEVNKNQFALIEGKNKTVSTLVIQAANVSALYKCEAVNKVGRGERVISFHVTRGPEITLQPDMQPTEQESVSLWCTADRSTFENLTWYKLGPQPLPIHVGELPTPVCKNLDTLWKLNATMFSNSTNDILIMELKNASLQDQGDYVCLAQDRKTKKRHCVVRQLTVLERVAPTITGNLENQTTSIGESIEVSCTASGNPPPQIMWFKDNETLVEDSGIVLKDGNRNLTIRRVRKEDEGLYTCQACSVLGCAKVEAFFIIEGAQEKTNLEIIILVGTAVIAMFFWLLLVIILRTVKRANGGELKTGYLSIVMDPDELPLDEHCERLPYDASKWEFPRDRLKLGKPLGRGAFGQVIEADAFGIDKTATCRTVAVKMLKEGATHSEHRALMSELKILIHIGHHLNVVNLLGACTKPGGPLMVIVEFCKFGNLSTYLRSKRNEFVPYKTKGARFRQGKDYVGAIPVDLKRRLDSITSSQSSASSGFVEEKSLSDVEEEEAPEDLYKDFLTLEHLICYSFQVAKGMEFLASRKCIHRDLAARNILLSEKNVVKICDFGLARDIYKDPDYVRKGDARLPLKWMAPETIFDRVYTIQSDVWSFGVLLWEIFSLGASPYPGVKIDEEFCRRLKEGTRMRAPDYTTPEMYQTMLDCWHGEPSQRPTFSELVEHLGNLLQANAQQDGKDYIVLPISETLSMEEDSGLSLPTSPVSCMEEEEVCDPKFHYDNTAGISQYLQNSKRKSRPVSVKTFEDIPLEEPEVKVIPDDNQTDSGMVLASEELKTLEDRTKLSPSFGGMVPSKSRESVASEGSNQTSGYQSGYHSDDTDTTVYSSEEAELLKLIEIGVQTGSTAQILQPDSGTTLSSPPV
T2 sequence (P35968 834-1162 limits assumed): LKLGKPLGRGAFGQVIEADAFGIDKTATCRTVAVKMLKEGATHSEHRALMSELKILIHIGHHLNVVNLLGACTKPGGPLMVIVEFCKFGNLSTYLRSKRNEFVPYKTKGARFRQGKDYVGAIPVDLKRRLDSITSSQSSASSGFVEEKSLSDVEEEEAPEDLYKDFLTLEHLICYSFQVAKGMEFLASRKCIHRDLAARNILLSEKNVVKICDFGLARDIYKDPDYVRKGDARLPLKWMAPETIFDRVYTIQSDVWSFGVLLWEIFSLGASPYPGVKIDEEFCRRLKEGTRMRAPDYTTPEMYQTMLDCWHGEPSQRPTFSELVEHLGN

Consider `c1ccc2c(Nc3ccc4c(c3)CCC4)ncc(Sc3ccncc3)c2c1` [Example 2, 1-(indan-5-ylamino)-4-(4-pyridylthio)isoquinoline], for which the values for the IC50 in data set [1] and in data set [2] were ≤ 20 nM and ≤ 100 nM, respectively.

For `c1ccc2c(Nc3ccc4c(c3)CCC4)ncc(Cc3ccncc3)c2c1` [Example 6, 1-(indan-5-ylamino)-4-(4-pyridylmethyl)-isoquinoline], the figures for the IC50 in data set [1] and in data set [2] were ≤ 20 nM and ≤ 100 nM, respectively.

As for `Clc1ccc(Nc2nnc(OCc3ccncc3)c3sccc23)cc1` [Example 8, 4-(4-chlorophenylamino)-7-(4-pyridylmethoxy)thieno-[2,3-d]pyridazine], the melting point (usually the temperature, or range, at which the solid turns liquid) is 203 to 205 °C (dec.). Further, the IC50 (commonly the midpoint of a concentration-inhibition curve) in data set [2] is ≤ 100 nM.

Consider `Clc1ccc(Nc2nnc(OCc3ccncc3)c3occc23)cc1` [Example 9, 4-(4-chlorophenylamino)-7-(4-pyridylmethoxy)furo[2,3-d]pyridazine], for which the IC50 is 20 to 50 nM in data set [1] and ≤ 100 nM in data set [2].

As to `NC(=O)c1cc(COc2nnc(Nc3ccc(Cl)cc3)c3ccsc23)ccn1` [Example 10, 4-(4-chlorophenylamino)-7-(2-aminocarbonyl-4-pyridylmethoxy)thieno-[2,3-d]pyridazine], the melting point was 233 °C. In addition, the IC50 in data set [1] is ≤ 20 nM. Also, the IC50 in data set [2] is ≤ 100 nM.

As for `CNC(=O)c1cc(COc2nnc(Nc3ccc(Cl)cc3)c3ccsc23)ccn1` [Example 11, 4-(4-chlorophenylamino)-7-(2-methylaminocarbonyl-4-pyridylmethoxy)thieno-[2,3-d]pyridazine], the IC50 was ≤ 20 nM in data set [1] and ≤ 100 nM in data set [2].

In the case of `CNC(=O)c1cc(COc2nnc(Nc3ccc(Cl)cc3)c3ccoc23)ccn1` [Example 14, 4-(4-chlorophenylamino)-7-(2-methylaminocarbonyl-4-pyridylmethoxy)furo-[2,3-d]pyridazine], the values for the IC50 in data set [1] and in data set [2] were ≤ 20 nM and ≤ 100 nM, respectively.

Take `Clc1ccc(Nc2nnc(Nc3ccc4ncsc4c3)c3sccc23)cc1` [Example 23]: in data set [1], the concentration for half-maximal inhibition (IC50) is ≤ 20 nM.

As for `Clc1ccc(Nc2nnc(Nc3ccc4nn[nH]c4c3)c3ccccc23)cc1` [Example 96], the IC50 is ≤ 20 nM in data set [1] and ≤ 100 nM in data set [2].

`Brc1cccc(Nc2nnc(Nc3ccc4ncsc4c3)c3ccccc23)c1` [Example 101]: the results for the IC50 in data set [1] and in data set [2] were ≤ 20 nM and ≤ 100 nM, respectively.

For the compound `CC(C)c1ccc(Nc2nnc(Nc3ccc4ncsc4c3)c3ccccc23)cc1` [Example 102], the IC50 in data set [1] was ≤ 20 nM; in data set [2], ≤ 100 nM.

For the compound `COc1cccc(Nc2nnc(Nc3ccc4ncsc4c3)c3ccccc23)c1` [Example 103], the IC50 is ≤ 20 nM in data set [1] and ≤ 100 nM in data set [2].

Turning to `Clc1ccc(Nc2nnc(Nc3ccc4ncsc4c3)c3ccccc23)cc1` [Example 105], the figures for the IC50 in data set [1] and in data set [2] were ≤ 20 nM and ≤ 100 nM, respectively.
